Test system: purified T cells from C57BL/6 mice stimulated with bone marrow-derived BALB/c DCs
Assay: Allogeneic T cell proliferation assay (3H-thymidine incorporation, IFN-γ ELISA)
Type: cell-based, mouse
Protocol: Cells were co-cultured either alone (media) or in the presence of LPS (100 ng/mL), Pam3CSK4 (2 μg/mL), hyaluronan (HA) (100 μg/mL), sonicated-HA (sHA) (100 μg/mL), fibronectin (FN) (100 μg/mL), fibrinogen (Fbn) (100 μg/mL), heparan sulfate (HS) (100 μg/mL), HSP70 (5 μg/mL), HMGB1 (1 μg/mL), C12-iE-DAP (1 μg/mL), or L18-MDP (1 μg/mL) for 72 hours, and then pulsed ^3H-thymidine for 16 hours. Proliferation was determined by ^3H incorporation and results are expressed as cpm±SEM. Baseline alloreactivity is indicated by the dotted line; *p<0.05 compared with media alone. […] Results are representative of three independent experiments.
T cell proliferation assay: DCs were generated from bone marrow as previously described. (Yang, Y. (2004) Nat. Immunol. 5:508-15). CD3^+ T cells were isolated from B6 mice using a CD3 negative selection magnetic bead kit (Invitrogen, Carlsbad, United States). Proliferation assays were performed as previously described. (Brennan, T. V. et al. (2008) Transplantation 85:247-55).
Purified T cells from C57BL/6 mice were stimulated with bone marrow-derived DCs from BALB/c mice and their proliferation was measured by the incorporation of ^3H-thymidine. DAMPs tested included proteins—fibronectin (FN), fibrinogen (Fbn), heat shock protein 70 (HSP70), and high-mobility group protein B1 (HMGB1); and glucosaminoglycans—heparan sulfate (HS) and hyaluronan (HA). For comparison, two well-described PAMPs, lipopolysaccharide (LPS) and a synthetic tripalmitoylated lipopeptide (Pam3CSK4) that are ligands of the TLR4 homodimer and the TLR1/2 heterodimer, respectively, were tested. As nucleotide-binding domain, leucine-rich repeat containing receptors (NLRB) are another family of innate immune receptors, ligands of NLR1 (C12-iE-DAP) and NLR2 (L18-MDP) were further tested.
Next, to investigate whether HS enhanced proliferation of allogeneic T cells was due to the stimulation of TLRs on DCs or T cells, because MyD88 is a common adaptor protein involved in the signal transduction of all TLRs with the exception of TLR3^9, HS was tested against DCs or T cells that were deficient for MyD88. For this purpose, T cells from WT or MyD88^−/− C57BL/6 mice were stimulated with DCs from WT or MyD88^−/− BALB/c mice in an allogeneic proliferation assay in the presence of HS, LPS, Pam3CSK4, or media alone.
HS has been shown as a TLR4 ligand, (Johnson, G. B. et al., (2002) J. Immunol. 168:5233-39; Johnson, G. B., Brunn, G. J. & Platt, J. L. (2004) J. Immunol. 172:20-24). To determine whether the absence of TLR4 expression on stimulating DCs would reduce HS-induced alloreactive T cell proliferation equivalent to MyD88 deficiency, purified T cells from C57BL/6 mice were co-cultured with irradiated WT, TLR4^−/−, and MyD88^−/− BALB/c DCs and proliferation was measured by the incorporation of ^3H-thymidine.
Cytokine analysis: Cell culture supernatants were obtained from DC cultures or T cell proliferation assays and assayed for IL-6, IL-12 and IFN-γ by ELISA (BD Biosciences) according to the manufacturer's standard protocols. HEK 293 supernatants were tested for human IL-8 by ELISA (BioLegend, San Diego, United States).
Allogenic heart transplants were performed between C57BL/6 donors and (BALB/c x DBA.1)F1 recipients. Serum HS was measured by ELISA Immunohistologic staining for HS and CD3 was performed on heart tx tissue. Bone marrow derived dendritic cells (DCs) and purified T cells from WT-, MyD88- or TLR4-deficient mice were used in MLR assays to test for proliferation and cytokine production in response to HS. CD40 and CD80 expression on stimulated DCs was measured by FACS. T cell proliferation was determined by ^3H-thymidine incorporation and CFSE dye dilution assay. HEK293 NF-kB-luciferase reporter cell lines stably expressing CD14, MD2, and TLR4 or TLR2 were used in assays of HS activity.

[1] = TLR4−/− BALB/c DCs as stimulators

## heparan sulfate [HS]
  IFNg production in MLR assays: increased
MyD88−/− BALB/c DCs
  alloreactive T cell proliferation with MyD88−/− DCs as stimulators: abolished the enhanced proliferation
[1]
  IFN-γ production with TLR4−/− DCs: not able to increase
  proliferation of allogeneic T cells above baseline with TLR4−/− DCs: not able to increase
WT BALB/c DCs + C57BL/6 T cells, 72 h then 3H-thymidine 16 h, HS 100 μg/mL, HSP70 5 μg/mL, C12-iE-DAP 1 μg/mL, L18-MDP 1 μg/mL
  alloreactive T cell proliferation compared to media alone: significantly increased

From US20160109459A1, “Compositions And Methods For Heparan Sulfate As A Biomarker For Transplant Rejection” (Duke University, priority 2012, published 2016)
